These results are taken from patent US8865734B2 (priority 2010, dated 2014).

The test system of series [1] is in vitro grown Mycobacteria (M. tuberculosis). As to the kind of experiment: QUM: Quantification of in vitro grown Mycobacteria (in vitro growth fluorescence assay). The format is cell-based. The settings on record: Mycobacterium tuberculosis; MIC, 80% bacterial growth inhibition; in vitro growth; read-out: QUM. The gist of the method: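 Mycobacterium tuberculosis grown in vitro was quantified by fluorescence across compound dose responses. MIC is defined as the minimum concentration producing 80% growth inhibition.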

The subject of series [2] is M. tuberculosis inside the host macrophage. The series can be described thus: QIM: Quantification of Intracellular Mycobacteria (intracellular growth assay, phenotypic cell-based). The conditions noted are these: Mycobacterium tuberculosis; MIC, 80% bacterial growth inhibition; intracellular growth; read-out: QIM. Summed up: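 Phenotypic high-content assay measuring M. tuberculosis multiplication inside host macrophages, run as dose response. MIC is the minimum compound concentration giving 80% bacterial growth inhibition.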

≈ marks a conversion by molar mass, not a printed value. Where a name gives a salt, the structure may show the parent alone.

The melting point is the temperature, or range, at which the solid turns liquid. `CCc1nc2cc(Cl)ccn2c1C(=O)NCc1ccc(N2CCN(c3ccc(F)cc3)CC2)cc1` (as salt: hydrochloride) [Compound 177, 7-Chloro-2-ethyl-N-(4-(4-(4-fluorophenyl)piperazin-1-yl)benzyl)imidazo[1,2-a]pyridine-3-carboxamide trihydrochloride] came in with a melting point of 204.4 to 206.9 °C.

Molecule `CCc1nc2ccc(OC)cn2c1C(=O)NCc1ccc(N2CCN(c3ccc(F)cc3)CC2)cc1` [Compound 112, 2-Ethyl-N-(4-(4-(4-fluorophenyl)piperazin-1-yl)benzyl)-6-methoxyimidazo[1,2-a]pyridine-3-carboxamide] came in with a melting point of 173.8 °C. The MIC in series [1] was below 1 µM.

In turn, `CCc1nc2ccc(Cl)cn2c1-c1nc(Cc2ccc(Oc3ccc(F)cc3)cc2)no1` [Compound 245, 5-(6-Chloro-2-ethylimidazo[1,2-a]pyridin-3-yl)-3-(4-(4-fluorophenoxy)benzyl)-1,2,4-oxadiazole] displayed a melting point of 129.9 °C. For the same molecule, the MIC in series [1] lay within 1 to 20 µM (≈ 0.449 to 8.98 µg/mL).

`CCNC(=O)c1c(CC)nc2ccc(Cl)cn12` [Compound 246, 6-Chloro-N,2-diethylimidazo[1,2-a]pyridine-3-carboxamide] showed a melting point of 176.7 °C. Further, in series [1], the MIC was above 20 µM.

In turn, `CCc1nc2ccc(Cl)cn2c1C(=O)NCC(C)C` [Compound 247, 6-Chloro-2-ethyl-N-isobutylimidazo[1,2-a]pyridine-3-carboxamide] showed a melting point of 162.2 °C. In addition, the MIC in series [1] was above 20 µM.

The molecule `CCc1nc2cc(Cl)ccn2c1C(=O)NCc1cccc(-c2ccc(OC(F)(F)F)cc2)c1` [Compound 248, 7-Chloro-2-ethyl-N-((4′-(trifluoromethoxy)biphenyl-3-yl)methyl)imidazo[1,2-a]pyridine-3-carboxamide] returned a melting point of 192.6 °C. In addition, the MIC in series [1] was below 1 µM.

Molecule `CCc1nc2ccc(F)cn2c1C(=O)NCc1ccc(Oc2ccc(OC(F)(F)F)cc2)cc1` [Compound 253, 2-Ethyl-6-fluoro-N-(4-(4-(trifluoromethoxy)phenoxy)benzyl)imidazo[1,2-a]pyridine-3-carboxamide] had a melting point of 133.4 °C. The MIC in series [1] is below 1 µM.

`CCc1nc2ccc(Br)cn2c1C(=O)NCc1ccc(Oc2ccc(OC(F)(F)F)cc2)cc1` [Compound 254, 6-Bromo-2-ethyl-N-(4-(4-(trifluoromethoxy)phenoxy)benzyl)imidazo[1,2-a]pyridine-3-carboxamide]: the melting point amounted to 152.9 °C. Besides, the MIC in series [1] is below 1 µM.

Regarding `CCc1nc2cc(C)ccn2c1C(=O)NCc1ccc(Oc2ccc(OC(F)(F)F)cc2)cc1` [Compound 256, 2-Ethyl-7-methyl-N-(4-(4-(trifluoromethoxy)phenoxy)benzyl)imidazo[1,2-a]pyridine-3-carboxamide], the melting point was 133.6 °C. Moreover, the MIC in series [1] is below 1 µM.

Molecule `CCc1nc2c(F)cccn2c1C(=O)NCc1ccc(Oc2ccc(OC(F)(F)F)cc2)cc1` [Compound 257, 2-Ethyl-8-fluoro-N-(4-(4-(trifluoromethoxy)phenoxy)benzyl)imidazo[1,2-a]pyridine-3-carboxamide] came in with a melting point of 105.6 °C. The MIC in series [1] is below 1 µM.

For `CCc1nc2ccc(Br)cn2c1C(=O)NCc1ccc(OCc2ccc(OC(F)(F)F)cc2)cc1` [Compound 259, 6-Bromo-2-ethyl-N-(4-(4-(trifluoromethoxy)benzyloxy)benzyl)imidazo[1,2-a]pyridine-3-carboxamide], the melting point is 189.7 °C. The MIC in series [1] was below 1 µM.

`CCc1nc2ccccn2c1C(=O)NCc1ccc(OCc2ccc(OC(F)(F)F)cc2)cc1` [Compound 260, 2-Ethyl-N-(4-(4-(trifluoromethoxy)benzyloxy)benzyl)imidazo[1,2-a]pyridine-3-carboxamide] returned a melting point of 138.7 °C. For the same molecule, in series [1], the MIC is below 1 µM.

Regarding `CCc1nc2cc(Cl)ccn2c1C(=O)NCc1ccc(N2CCN3CCCC3C2)cc1` (centres unmarked) [Compound 265, 7-Chloro-2-ethyl-N-(4-(hexahydropyrrolo[1,2-a]pyrazin-2(1H)-yl)benzyl)imidazo[1,2-a]pyridine-3-carboxamide], the melting point is 159.1 °C. Besides, in series [1], the MIC is above 20 µM.

Take `CCc1nc2ccc(Cl)cn2c1C(=O)NCc1ccc(N2CCN3CCCC3C2)cc1` (centres unmarked) [Compound 266, 6-Chloro-2-ethyl-N-(4-(hexahydropyrrolo[1,2-a]pyrazin-2(1H)-yl)benzyl)imidazo[1,2-a]pyridine-3-carboxamide]: the melting point turned out to be 163 °C. In addition, the MIC in series [1] is above 20 µM.

For the molecule `CCc1nc2cc(Cl)ccn2c1C(=O)NCc1ccc(N2CCC3CCCCC3C2)cc1` (centres unmarked) [Compound 268, 7-Chloro-2-ethyl-N-(4-(octahydroisoquinolin-2(1H)-yl)benzyl)imidazo[1,2-a]pyridine-3-carboxamide], the melting point amounted to 174.2 °C. The MIC in series [1] is below 1 µM.

With `CCc1nc2cc(Cl)ccn2c1C(=O)NCc1ccc(N2CCC(=O)CC2)cc1` [Compound 269, 7-Chloro-2-ethyl-N-(4-(4-oxopiperidin-1-yl)benzyl)imidazo[1,2-a]pyridine-3-carboxamide], the MIC in series [2] is 1 to 20 µM (≈ 0.411 to 8.22 µg/mL); in series [1] it was below 1 µM.

`C=C1CCN(c2ccc(CNC(=O)c3c(CC)nc4cc(Cl)ccn34)cc2)CC1` [Compound 271, 7-Chloro-2-ethyl-N-(4-(4-methylenepiperidin-1-yl)benzyl)imidazo[1,2-a]pyridine-3-carboxamide]: the melting point came out at 168.3 °C. Besides, the MIC in series [1] is below 1 µM.

For `CCc1nc2ccc(Cl)cn2c1C(=O)NCc1ccc(N2CCCCC2C)cc1` (centres unmarked) [Compound 272, 6-chloro-2-ethyl-N-(4-(2-methylpiperidin-1-yl)benzyl)imidazo[1,2-a]pyridine-3-carboxamide], the MIC in series [2] and in series [1] was below 1 µM throughout.

`CCc1nc2cc(Cl)ccn2c1C(=O)NCc1ccc(N2CCC(C)(C)CC2)cc1` [Compound 274] had a melting point of 121.3 °C. In addition, the MIC in series [1] is below 1 µM.

The molecule `CCc1nc2ccc(Cl)cn2c1C(=O)NCc1ccc(N2CCC(C(F)(F)F)CC2)cc1` [Compound 275, 6-Chloro-2-ethyl-N-(4-(4-(trifluoromethyl)piperidin-1-yl)benzyl)imidazo[1,2-a]pyridine-3-carboxamide] had a melting point of 197.9 °C. Besides, the MIC in series [1] lay in the range of 1 to 20 µM (≈ 0.465 to 9.3 µg/mL).

Take `CCc1nc2cc(Cl)ccn2c1C(=O)NCc1ccc(N2CCC(C(F)(F)F)CC2)cc1` [Compound 276, 7-Chloro-2-ethyl-N-(4-(4-(trifluoromethyl)piperidin-1-yl)benzyl)imidazo[1,2-a]pyridine-3-carboxamide]: the melting point was 209.4 °C. Further, the MIC in series [1] was above 20 µM.

Molecule `CCc1nc2ccc(Cl)cn2c1C(=O)NCc1ccc(N2CCC(F)(F)CC2)cc1` [Compound 277, 6-chloro-N-(4-(4,4-difluoropiperidin-1-yl)benzyl)-2-ethylimidazo[1,2-a]pyridine-3-carboxamide] showed a melting point of 194.2 °C. For the same molecule, the MIC in series [1] was 1 to 20 µM (≈ 0.433 to 8.66 µg/mL).

Regarding `CCc1nc2cc(Cl)ccn2c1C(=O)NCc1ccc(N2CCC(F)(F)CC2)cc1` [Compound 278, 7-Chloro-N-(4-(4,4-difluoropiperidin-1-yl)benzyl)-2-ethylimidazo[1,2-a]pyridine-3-carboxamide], the melting point came to 166.3 °C. For the same molecule, the MIC in series [1] lay within 1 to 20 µM (≈ 0.433 to 8.66 µg/mL).

`CCc1nc2ccc(Cl)cn2c1C(=O)NCc1ccc(N2CCC(CO)CC2)cc1` [Compound 279, 6-Chloro-2-ethyl-N-(4-(4-(hydroxymethyl)piperidin-1-yl)benzyl)imidazo[1,2-a]pyridine-3-carboxamide] returned a melting point of 161.1 °C. Further, the MIC in series [1] was above 20 µM.

As for `CCc1nc2cc(Cl)ccn2c1C(=O)NCc1ccc(N2CCC(c3ccccc3)CC2)cc1` [Compound 283, 7-Chloro-2-ethyl-N-(4-(4-phenylpiperidin-1-yl)benzyl)imidazo[1,2-a]pyridine-3-carboxamide], the melting point is 164.5 °C. Also, the MIC in series [1] is below 1 µM.

As to `CCc1nc2ccc(Cl)cn2c1C(=O)NCc1ccc(N2CCC(c3ccccc3)CC2)cc1` [Compound 284, 6-Chloro-2-ethyl-N-(4-(4-phenylpiperidin-1-yl)benzyl)imidazo[1,2-a]pyridine-3-carboxamide], the melting point came to 138.2 °C. Further, the MIC in series [1] is below 1 µM.

For the molecule `CCc1nc2ccc(Cl)cn2c1C(=O)NCc1ccc(N2CCC(COC(C)C)CC2)cc1` [Compound 291, 6-Chloro-2-ethyl-N-(4-(4-(isopropoxymethyl)piperidin-1-yl)benzyl)imidazo[1,2-a]pyridine-3-carboxamide], the MIC in series [2] and in series [1] was below 1 µM in each case.

Consider `CCc1nc2cc(Cl)ccn2c1C(=O)NCc1ccc(N2CCC(COC(C)C)CC2)cc1` [Compound 292, 7-Chloro-2-ethyl-N-(4-(4-(isopropoxymethyl)piperidin-1-yl)benzyl)imidazo[1,2-a]pyridine-3-carboxamide], for which the MIC in series [2] and in series [1] was below 1 µM in each case.

For the molecule `CCc1nc2ccc(F)cn2c1C(=O)NCc1ccc(N2CCOCC2)cc1` [Compound 316, 2-Ethyl-6-fluoro-N-(4-morpholinobenzyl)imidazo[1,2-a]pyridine-3-carboxamide], the MIC in series [2] and in series [1] was 1 to 20 µM (≈ 0.382 to 7.65 µg/mL) in each case.

For the molecule `CCc1nc2cc(N3CCN(c4ccc(F)cc4)CC3)ccn2c1C(=O)NCc1ccc(N2CCOCC2)cc1` [Compound 329, 2-Ethyl-7-(4-(4-fluorophenyl)piperazin-1-yl)-N-(4-morpholinobenzyl)imidazo[1,2-a]pyridine-3-carboxamide], the MIC in series [2] and in series [1] was above 20 µM each time.
